Several values for one entry are separate records, joined by “and”; a condition that tells them apart may be missing. Identical values can stand only once.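 48-hour exposure; five concentrations; linearly interpolated endpoints. GI50 is the concentration that inhibits growth by half. Definition used: TGI = concentration required for complete inhibition of growth.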

Common to all, as to assay: NCI tumour cell line growth inhibition, 48 h
The subject of assay [1] is LXFL 529 NSCLC.
The test system of assay [2] is M19-MEL melanoma.
Assay [3] concerns XF 498 CNS.
For assay [4], the system named is DMS 273 small cell lung.
Assay [5] deals with DLD-1 colon.
Assay [6] has as its system RXF-631 renal.
The test system of assay [7] is KM20L2 colon.
Assay [8] has as its system HOP-18 NSCLC.
The test system of assay [9] is MDA-N.
The subject of assay [10] is SN12K1 renal.
The subject of assay [11] is P388/ADR leukemia.
Assay [12] deals with P388 leukemia.

Take `COc1cc2c3c(c1OC)/C(=N/OS(=O)(=O)c1ccc(C)cc1)CC3N(S(=O)(=O)c1ccc(C)cc1)CC2` (stereo not drawn): the TGI in [1], in [2], in assay [3], in assay [4], in [5] and in assay [6] was over 100 µM throughout. In addition, the TGI in assay [7] and in assay [8] was over 100 µM in each case.
Consider `Nc1ccc2c(SCC(=O)Nc3ccccc3-c3ccccc3NC(=O)CSc3c4ccccc4nc4cc(N)ccc34)c3ccccc3nc2c1`, for which the TGI in [1] is 41.3 µM; in assay [2] it was 70.5 µM; in assay [3], 52.8 µM; in assay [4], over 100 µM; in assay [5], 38.4 µM; in [6] it was over 100 µM. In addition, the TGI in [7] is over 93.5 µM; in assay [8], 68.8 µM; in assay [9] it was over 69.5 µM.
With `C/C(N=NC(=S)N1CCCCCC1)=C1\C=CC=CN1O`, the TGI in assay [1] is over 100 µM; in [2], 59.3 µM; in [3] it was over 100 µM; in assay [4], 42.1 µM; in [5], over 100 µM; in assay [6], over 100 µM. Besides, the TGI in assay [7] is over 100 µM; in [8], over 92.9 µM; in assay [9], over 100 µM.
`O=C1c2c(O)ccc(O)c2C(=O)c2c(NCCNCCO)ccc(NCCNCCO)c21`: the TGI in [10] was found to be 305 nM; in assay [2], 0.925 µM; in assay [3], 0.0879 µM; in [4], 0.57 µM; in assay [5] it was 4.87 µM; in [7], 8.09 µM. In addition, the TGI in [8] was 1.67 µM; in assay [9], 1.48 µM and 1.66 µM; in assay [11] it was 6 µM; in assay [12], 82.1 nM.
As for `CN1C=C(C(N)=O)C2CC(O)[C@@](NC(=O)CS(N)(=O)=O)(C(=O)O)C2C1` (stereo partly drawn), the TGI in [2] was 15.8 µM; in assay [3] it was 3.21 µM; in [4], 9.75 µM; in assay [5] it was 52.7 µM; in [6], 9.7 µM; in assay [7] it was over 40.9 µM. For the same molecule, the TGI in assay [8] was over 100 µM.
Consider `C=C1C(=O)C23CC1CCC2C12CO[C@@]3(O)[C@@H](O)C1C(C)(C)C=CC2=O` (stereo partly drawn), for which the TGI in assay [2] stood at 1.72 µM; in assay [3] it was 1.42 µM; in assay [4], 1.3 µM; in [5] it was 2.22 µM; in assay [6] it was 2.33 µM; in [7] it was 4.39 µM. For the same molecule, the TGI in assay [8] came out at 2.2 µM; in assay [9] it was 7.71 µM.
In the case of `O=c1ncccn1C1OC(CO)C(O)C1F` (stereo not drawn), the TGI in [1], in assay [2], in [3], in assay [4], in [5] and in assay [6] was over 100 µM each time. The TGI in assay [7] and in [8] was over 100 µM throughout. In addition, the GI50 in [5] was over 100 µM.
Regarding `COC(=O)C1=C(C(=O)OC)N(C(C)C)[C@H]2C(C(=O)OC)=C(C(=O)OC)N(C(C)C)[C@@H]12`, the TGI in assay [1], in assay [2], in [3], in assay [4], in assay [5] and in [6] was over 100 µM each time. Also, the TGI in [7] and in assay [8] was over 100 µM each time.
